From patent US20190178889A1, “HIGH-THROUGHPUT SCREENING ASSAY” (BellBrook Labs, priority 2016, published 2019)
Each block holds one compound with its values, some of them ahead of it.

Legend:
cGAMP mAb6 = assay: competitive FP immunoassay, cGAMP mAb6 with cGAMP-Atto 633 tracer; type: binding, mouse; conditions: for binding to mAb6: ATP and GTP at more than 10^4-fold excess over half-maximal cGAMP concentration
Excerpt: Importantly, neither of these other cyclic dinucleotides are known to be endogenous in mammalian cells.

[1] = system: mouse antiserum (cGAMP antibody); assay: FP binding of mouse antiserum to fluorescein-cGAMP tracer with competitor nucleotides; conditions: competitor 10 μM, tracer 4 nM
full length human cGAS [2] = biological target: T1, full length human cGAS (Homo sapiens, UniProt Q8N884); assay: cGAS enzyme assay with cGAMP FP detection; type: biochemical; design: Assays using highly purified, full length human cGAS were performed; 6xHis; made in house; host or cells: E. coli BL21 DE3 (Rosetta DE3, Novagen), T7 expression vector
Experimental: FIG. 9 includes A) a plot showing detection of purified, full-length cGAS: cGAS enzyme titrations show a dose-dependent assay signal, as discussed in more detail in Example 2, below; N- and C-terminal His-tagged cGAS was prepared according to Example 4 (100 μM ATP and GTP, 62.5 nM 45 bp ISD DNA, 60 min reactions); […]; C) Confirmation that recombinant hcGAS was activated by ds DNA; half maximal responses of 3.5 and 5.9 nM for HSV 60 and ISD 45, respectively; D) ATP and GTP dependence: ATP and GTP were titrated separately and simultaneously; half maximal cGAS activity at 80 μM of both nucleotide; E) Dose response for cGAS inhibition by two flavonoids; F) a plot showing the results of an interference screen: the library of 1280 pharmacologically active compounds, available from Sigma (the “LOPAC library”) was used to test for compound interference with detection reagents as discussed in more detail in Example 2, below; wells contained all cGAS enzyme reaction components except the cGAS enzyme; positive controls contained 1 μM cGAMP, negative controls contained no cGAMP; […]; negative controls lacked dsDNA required for cGAS activation; H) an image of a coomassie blue stained SDS gel (top) and western blot (bottom) of purified 6×HIS-cGAS (Lane 1) and cGAS-6×His (Lane 2) prepared according to Example 4; Z=0.62, Z′=0.7.
cGAS is one of four oligoadenylate synthases, nucleic acid sensors that activate innate immunity via production of short, 2′-5′ oligoadenylate secondary messengers (35); […]. Binding of dsDNA and DNA:RNA hybrids to cGAS induces a conformational transition in an activation loop, not unlike the displacement of inhibitory domains by autophosphorylation in protein kinases (Zhang, et al., 2014, Cell Rep 6(3):421-30; Fabbro, et al., 2012, Methods Mol Biol 795:1-34). The full-length enzyme was used to insure that all of the potential allosteric sites were present and that the enzyme was able to sample its full conformational repertoire. Prior to running cGAS enzyme reactions, the effect of cGAS reaction components, including ATP and GTP Brij 35, NaCl, Brij 35, and dsDNA on the detection reagents was examined; no significant effects were observed. Assays using highly purified, full length human cGAS were performed. The full-length human cGAS was prepared according to Example 4, below. Additionally, third-party-provided cGAS (Sun, et al., 2013, Science 339(6121):786-91) was used for comparative purposes. Some enzyme assays were run in kinetic mode; i.e., the detection reagents were present during the enzyme reactions, and the plates were read periodically, and others were run in endpoint mode, using EDTA to quench the reaction.
. The enzyme data was graphed as the net change in polarization; […]. Conversion of polarization to cGAMP formation using a standard curve confirmed that product formation was linear with cGAS concentration (FIG. 9B); […]. There was essentially no quantitative activity data available for cGAS prior to the instant disclosure and the kcat values of approximately 1 min^−1 determined herein (at non-saturating ATP and GTP) were the first reported cGAS kinetic parameters. The generation of a good signal (i.e., ≥100 mP) with less than 10 nM cGAS is important for two reasons. It reduces the time and cost to prepare for a large screen by minimizing enzyme usage; for example, screening 1M (one million) compounds at 10 nM cGAS will require only 12 mg of enzyme. […]

scFvs against haptens = conditions: affinity-matured scFvs, yeast display; read-out: Kds of scFvs; cited from earlier work
full length human cGAS [3] = biological target: T1, full length human cGAS; assay: cGAS enzyme assay with cGAMP TR-FRET detection
[4] = both nucleotides combined (titrated simultaneously), read-out: half maximal concentration of ATP and GTP for cGAS activity

T1 sequence (Q8N884 whole entry): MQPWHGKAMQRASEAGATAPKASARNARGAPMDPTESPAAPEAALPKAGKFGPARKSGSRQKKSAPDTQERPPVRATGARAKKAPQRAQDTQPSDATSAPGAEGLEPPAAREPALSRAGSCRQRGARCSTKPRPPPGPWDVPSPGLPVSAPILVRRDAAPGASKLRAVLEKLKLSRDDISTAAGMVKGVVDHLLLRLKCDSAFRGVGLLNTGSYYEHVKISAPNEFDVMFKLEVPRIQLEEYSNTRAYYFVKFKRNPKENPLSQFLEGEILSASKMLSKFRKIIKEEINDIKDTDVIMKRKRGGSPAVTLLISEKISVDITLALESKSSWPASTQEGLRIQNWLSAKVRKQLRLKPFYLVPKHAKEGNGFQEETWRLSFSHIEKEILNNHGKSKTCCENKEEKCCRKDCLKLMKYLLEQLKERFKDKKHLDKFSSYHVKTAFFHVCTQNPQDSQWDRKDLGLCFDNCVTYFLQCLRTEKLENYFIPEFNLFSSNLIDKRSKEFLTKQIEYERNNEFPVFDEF

Compound: Nc1nc2c(ncn2[C@@H]2O[C@@H]3COP(=O)(O)O[C@H]4[C@@H](O)[C@H](n5cnc6c(N)ncnc65)O[C@@H]4COP(=O)(O)O[C@@H]2[C@@H]3O)c(=O)[nH]1 [2′,3′ cGAMP, G(2′-5′)pA(3′-5′)p]
polarization shift (cGAMP mAb6; at 500 nM cGAMP, 0.5-0.6 μg/ml mAb6): approximately 130 mP
effect of excess competitor on antiserum/tracer binding curve [1]: right-shifted by approximately two orders of magnitude

Compound: Nc1nc2c(ncn2C2OC3COP(=O)(O)OC4C(O)C(COP(=O)(O)OC3C2O)OC4n2cnc3c(=O)[nH]c(N)nc32)c(=O)[nH]1 (stereo not drawn) [2′,3′ cyclic di-GMP]
IC50 (cGAMP mAb6; FP competition curves, FIG. 8E, read-out: 1050 values (competition, displacement of tracer from mAb6)): 250 nM

Compound: Nc1nc2c(ncn2[C@@H]2O[C@@H]3COP(=O)(O)O[C@H]4[C@@H](O)[C@H](n5cnc6c(N)ncnc65)O[C@@H]4COP(=O)(O)O[C@H]3[C@H]2O)c(=O)[nH]1 [3′,3′ cGAMP]
binding to mAb6 (cGAMP mAb6; FP competition curves, FIG. 8E): did not bind

Compound: Nc1ncnc2c1ncn2[C@@H]1O[C@H](COP(=O)(O)OP(=O)(O)O)[C@@H](O)[C@H]1O [ADP]
binding to mAb6 (cGAMP mAb6; FP competition curves, FIG. 8E): lack of binding

Compound: O=C(O)CN1CCN(CC(=O)O)CCN(CC(=O)O)CCN(CC(=O)O)CC1 [DOTA]
Kd (scFvs against haptens): 0.0082 nM

Compound: cGAS-His: full-length human cGAS having a 6×His at the C-terminus
Kcat (full length human cGAS [3]; determined by TR-FRET): 1.58
Kcat (full length human cGAS [2]; determined by FP): 1.21

The next lines start with results.

binding to mAb6 (cGAMP mAb6; FP competition curves, FIG. 8E): no detectable binding
effect of excess competitor on antiserum/tracer binding curve [1]: no effect
EC50 (full length human cGAS [2]; [4]): 80000 nM
Compound: Nc1ncnc2c1ncn2[C@@H]1O[C@H](COP(=O)(O)OP(=O)(O)OP(=O)(O)O)[C@@H](O)[C@H]1O [ATP]

binding to mAb6 (cGAMP mAb6; FP competition curves, FIG. 8E): no detectable binding
effect of excess competitor on antiserum/tracer binding curve [1]: no effect
EC50 (full length human cGAS [2]; [4]): 80000 nM
Compound: Nc1nc2c(ncn2[C@@H]2O[C@H](COP(=O)(O)OP(=O)(O)OP(=O)(O)O)[C@@H](O)[C@H]2O)c(=O)[nH]1 [GTP]

binding to mAb6 (cGAMP mAb6; FP competition curves, FIG. 8E): lack of binding
Compound: Nc1nc2c(ncn2[C@@H]2O[C@@H]3COP(=O)(O)O[C@H]3[C@H]2O)c(=O)[nH]1 [cGMP]

EC50 (full length human cGAS [3]; read-out: EC50, cGAS enzyme titration, TR-FRET assay, FIG. 10E): ~5 nM
EC50 (full length human cGAS [2]; FP assay, depending on the preparation, 100 μM ATP and GTP, 62.5 nM 45 bp ISD DNA, 60 min, read-out: half-maximal change (EC50) of polarization, cGAS enzyme titration): 6 to 12 nM
Compound: cGAS: highly purified, full length human cyclic GMP-AMP synthase
Kcat (full length human cGAS [2]; cGAMP FP assay, non-saturating ATP and GTP): approximately 1 min^−1
